Measured values taken from patent US8680159B2, “Bradykinin 1 receptor modulating compounds” (Gruenenthal GmbH, priority 2010, dated 2014).
Read-outs that look alike come from different tables or passages of the source.

Experiments:
[1] = molecular target: T1, human B1R receptor (CHO K1 cells stably transfected with the human B1R gene) (Homo sapiens, UniProt P46663); assay: Functional study on the bradykinin receptor 1 (B1R), Ca2+ fluorescence (Fluo-4) FLIPR/Novostar assay, hB1R cells; format: cell-based
T1 construct: expressed in transfected cells; host or cells: CHO K1 cells (Chinese hamster ovary), stably transfected
T1 sequence (P46663 1-353): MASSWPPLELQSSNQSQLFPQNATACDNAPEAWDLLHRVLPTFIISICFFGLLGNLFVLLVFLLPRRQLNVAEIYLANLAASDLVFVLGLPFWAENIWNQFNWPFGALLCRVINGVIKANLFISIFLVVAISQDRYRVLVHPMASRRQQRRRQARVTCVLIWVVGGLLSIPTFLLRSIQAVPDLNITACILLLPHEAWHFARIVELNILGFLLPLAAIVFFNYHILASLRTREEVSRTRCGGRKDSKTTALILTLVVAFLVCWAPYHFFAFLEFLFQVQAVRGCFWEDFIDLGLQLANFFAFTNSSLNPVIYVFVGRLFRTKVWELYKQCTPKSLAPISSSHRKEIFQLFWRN
Outline: (§1)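 Stably transfected CHO K1 cells carrying human or rat B1R were Fluo-4 loaded and Ca2+ fluorescence read by FLIPR or Novostar. Compounds were added first at 10 μM for % activation, then the EC80 agonist was applied after 6-20 min (human: Lys-Des-Arg9-bradykinin; rat: Des-Arg9-bradykinin). % inhibition is relative to maximum achievable inhibition, and IC50 comes from concentration series.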

[2] = molecular target: T2, B1R receptor of the rat (CHO K1 cells stably transfected with the B1R gene of the rat) (Rattus norvegicus, UniProt P97583); assay: Functional study on the bradykinin receptor 1 (B1R), Ca2+ fluorescence (Fluo-4) FLIPR/Novostar assay, rB1R cells; format: cell-based; conditions: for inhibition at 10 µM: CHO-K1, 10 μM, read-out: % Inhibition (r-B1R) at 10 μM
T2 construct: expressed in transfected cells; host or cells: CHO K1 cells (Chinese hamster ovary), stably transfected
T2 sequence (P97583 1-337): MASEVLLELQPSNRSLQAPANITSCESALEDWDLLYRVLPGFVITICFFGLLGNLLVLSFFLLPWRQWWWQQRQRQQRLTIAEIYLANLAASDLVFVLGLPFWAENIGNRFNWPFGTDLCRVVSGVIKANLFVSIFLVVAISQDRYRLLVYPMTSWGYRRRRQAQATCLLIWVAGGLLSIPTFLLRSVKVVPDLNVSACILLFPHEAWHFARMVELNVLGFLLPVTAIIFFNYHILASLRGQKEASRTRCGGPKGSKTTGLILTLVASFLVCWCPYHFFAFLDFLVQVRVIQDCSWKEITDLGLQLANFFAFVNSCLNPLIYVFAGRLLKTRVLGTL
Outline: as §1

[3] = CHO-K1, read-out: % Inhibition (h-B1R) at 10 μM
[4] = CHO-K1, read-out: % inhibition (human B1R) at 10 μM

Compound	inhibition at 10 µM [1, 3]	inhibition at 10 µM [2]	inhibition at 10 µM [1, 4]	other results
CN(C(=O)c1ccc2c(c1)C(NC(=O)c1cccc(Cl)c1Cl)CCC2)C1CCN(c2ccncc2)CC1 (stereo not shown) [CC_H-03, 8-[(2,3-Dichloro-benzoyl)amino]-N-methyl-N-(1-pyridin-4-yl-piperidin-4-yl)-5,6,7,8-tetrahydro-naphthalene-2-carboxylic acid amide]	99%	103%	–	–
CN(C(=O)c1ccc2c(c1)C(NC(=O)c1cc(F)ccc1Cl)CCC2)C1CCN(c2ccncc2)CC1 (stereo not shown) [CC_H-04, 8-[(2-Chloro-5-fluoro-benzoyl)amino]-N-methyl-N-(1-pyridin-4-yl-piperidin-4-yl)-5,6,7,8-tetrahydro-naphthalene-2-carboxylic acid amide]	99%	–	–	% Inhibition (r-B1R) at 10 μM ([2]; 10 μM): 104%
CN(C(=O)c1ccc2c(c1)C(NC(=O)C1CCCCC1)CCC2)C1CCN(c2ccncc2)CC1 (stereo not shown) [CC_H-05, 8-(Cyclohexanecarbonylamino)-N-methyl-N-(1-pyridin-4-yl-piperidin-4-yl)-5,6,7,8-tetrahydro-naphthalene-2-carboxylic acid amide]	98%	103%	–	–
CN(C(=O)c1ccc2c(c1)C(NC(=O)CCC1CCCC1)CCC2)C1CCN(c2ccncc2)CC1 (stereo not shown) [CC_H-06, 8-(3-Cyclopentyl-propanoylamino)-N-methyl-N-(1-pyridin-4-yl-piperidin-4-yl)-5,6,7,8-tetrahydro-naphthalene-2-carboxylic acid amide]	100%	104%	–	–
CN(C(=O)c1ccc2c(c1)C(NC(=O)c1sccc1Cl)CCC2)C1CCN(c2ccncc2)CC1 (stereo not shown) [CC_H-07, 3-Chloro-N-[7-[methyl-(1-pyridin-4-yl-piperidin-4-yl)-carbamoyl]-1,2,3,4-tetrahydro-naphthalen-1-yl]-thiophene-2-carboxylic acid amide]	99%	103%	–	–
CN(C(=O)c1ccc2c(c1)C(NC(=O)c1cncnc1)CCC2)C1CCN(c2ccncc2)CC1 (stereo not shown) [CC_H-08, N-[7-[Methyl-(1-pyridin-4-yl-piperidin-4-yl)-carbamoyl]-1,2,3,4-tetrahydro-naphthalen-1-yl]-pyrimidine-5-carboxylic acid amide]	99%	104%	–	–
Cc1cccc(C)c1C(=O)NC1CCCc2ccc(C(=O)N(C)C3CCN(c4ccncc4)CC3)cc21 (stereo not shown) [CC_H-09, 8-[(2,6-Dimethyl-benzoyl)amino]-N-methyl-N-(1-pyridin-4-yl-piperidin-4-yl)-5,6,7,8-tetrahydro-naphthalene-2-carboxylic acid amide]	99%	103%	–	–
CN(C(=O)c1ccc2c(c1)C(NC(=O)c1c(Cl)cccc1C(F)(F)F)CCC2)C1CCN(c2ccncc2)CC1 (stereo not shown) [CC_H-11, 8-[[2-Chloro-6-(trifluoromethyl)-benzoyl]amino]-N-methyl-N-(1-pyridin-4-yl-piperidin-4-yl)-5,6,7,8-tetrahydro-naphthalene-2-carboxylic acid amide]	99%	103%	–	–
Cc1cc(N2CCC(CCNC(=O)c3ccc4c(c3)[C@H](NC(=O)c3ccccc3Cl)CC4)CC2)nc(C)n1 [Example H-215, (3R)-3-[(2-Chloro-benzoyl)amino]-N-[2-[1-(2,6-dimethyl-pyrimidin-4-yl)-piperidin-4-yl]-ethyl]-2,3-dihydro-1H-indene-5-carboxylic acid amide]	–	–	95%	–
CCN(C(=O)c1ccc2c(c1)[C@H](NC(=O)c1ccccc1Cl)CC2)C1CCN(c2cc(C)nc(C)n2)CC1 [Example H-216, (3R)-3-[(2-Chloro-benzoyl)amino]-N-[1-(2,6-dimethyl-pyrimidin-4-yl)-piperidin-4-yl]-N-ethyl-2,3-dihydro-1H-indene-5-carboxylic acid amide]	–	–	98%	–
CN(C(=O)c1ccc2c(c1)[C@H](NC(=O)c1ccccc1Cl)CC2)C1CCN(c2cc[nH]c(=O)c2)CC1 [Example H-219, (3R)-3-[(2-Chloro-benzoyl)amino]-N-methyl-N-[1-(2-oxo-1H-pyridin-4-yl)-piperidin-4-yl]-2,3-dihydro-1H-indene-5-carboxylic acid amide]	–	–	79%	–
CCN(C(=O)c1c(F)cccc1Cl)[C@@H]1CCc2ccc(C(=O)N(C)C3CCN(c4ccncc4)CC3)cc21 [Example H-220]	–	–	99%	–
CCN(C(=O)c1cc(F)ccc1Cl)[C@@H]1CCc2ccc(C(=O)N(C)C3CCN(c4ccncc4)CC3)cc21 [Example H-221, (3R)-3-[(2-Chloro-5-fluoro-benzoyl)-ethyl-amino]-N-methyl-N-(1-pyridin-4-yl-pipendin-4-yl)-2,3-dihydro-1H-indene-5-carboxylic acid amide]	–	–	99%	–
Cc1cc(N2CCC(N(C)C(=O)c3ccc4c(c3)[C@H](NC(=O)CC(C)C(C)C)CC4)CC2)ccn1 (stereo partly drawn) [Example H-222, (3R)-3-(3,4-Dimethyl-pentanoylamino)-N-methyl-N-[1-(2-methyl-pyridin-4-yl)-piperidin-4-yl]-2,3-dihydro-1H-indene-5-carboxylic acid amide]	–	–	99%	–
Cc1cc(N2CCC(N(C)C(=O)c3ccc4c(c3)[C@H](NC(=O)CC(C)C(C)C)CC4)CC2)nc(C)n1 (stereo partly drawn) [Example H-223, (3R)-3-(3,4-Dimethyl-pentanoylamino)-N-[1-(2,6-dimethyl-pyrimidin-4-yl)-piperidin-4-y]-N-methyl-2,3-dihydro-1H-indene-5-carboxylic acid amide]	–	–	96%	–
COc1cc(C(=O)N[C@@H]2CCc3ccc(C(=O)N(C)C4CCN(c5cc(C)nc(C)n5)CC4)cc32)on1 [Example H-224, N-[(1R)-6-[[1-(2,6-Dimethyl-pyrimidin-4-yl)-piperidin-4-yl]-methyl-carbamoyl]-2,3-dihydro-1H-inden-1-yl]-3-methoxy-isoxazole-5-carboxylic acid amide]	–	–	98%	–
COc1cc(C(=O)N[C@@H]2CCc3ccc(C(=O)N(C)C4CCN(c5ccnc(C)c5)CC4)cc32)on1 [Example H-225, 3-Methoxy-N-[(1R)-6-[methyl-[1-(2-methyl-pyridin-4-yl)-piperidin-4-yl]-carbamoyl]-2,3-dihydro-1H-inden-1-yl]-isoxazole-5-carboxylic acid amide]	–	–	100%	–
Cc1cc(N2CCC(N(C)C(=O)c3ccc4c(c3)[C@H](NC(=O)C3CCCC3)CC4)CC2)nc(C)n1 [Example H-226, (3R)-3-(Cyclopentanecarbonylamino)-N-[1-(2,6-dimethyl-pyrimidin-4-yl)-piperidin-4-yl]-N-methyl-2,3-dihydro-1H-indene-5-carboxylic acid amide]	–	–	99%	–
Cc1cc(N2CCC(N(C)C(=O)c3ccc4c(c3)[C@H](NC(=O)C3CCCC3)CC4)CC2)ccn1 [Example H-227, (3R)-3-(Cyclopentanecarbonylamino)-N-methyl-N-[1-(2-methyl-pyridin-4-yl)-piperidin-4-yl]-2,3-dihydro-1H-indene-5-carboxylic acid amide]	–	–	100%	–
CN(C)c1nccc(N2CCC(N(C)C(=O)c3ccc4c(c3)[C@H](NC(=O)C3CCCC3)CC4)CC2)n1 [Example H-228, (3R)-3-(Cyclopentanecarbonylamino)-N-[1-(2-dimethylamino-pyrimidin-4-yl)-piperidin-4-yl]-N-methyl-2,3-dihydro-1H-indene-5-carboxylic acid amide]	–	–	96%	–
CCN(C(=O)C1CCCC1)[C@@H]1CCc2ccc(C(=O)N(C)C3CCN(c4cc(C)nc(C)n4)CC3)cc21 [Example H-229, (3R)-3-(Cyclopentanecarbonyl-ethyl-amino)-N-[1-(2,6-dimethyl-pyrimidin-4-yl)-piperidin-4-yl]-N-methyl-2,3-dihydro-1H-indene-5-carboxylic acid amide]	–	–	98%	–
Cc1cc(N2CCC(N(C)C(=O)c3ccc4c(c3)[C@H](N(C)C(=O)C3CCCC3)CC4)CC2)nc(C)n1 [Example H-230, (3R)-3-(Cyclopentanecarbonyl-methyl-amino)-N-[1-(2,6-dimethyl-pyrimidin-4-yl)-piperidin-4-yl]-N-methyl-2,3-dihydro-1H-indene-5-carboxylic acid amide]	–	–	98%	–
CN(C(=O)c1ccc2c(c1)[C@H](NC(=O)c1ccccc1Cl)CC2)C1CCN(c2ccnc(N)n2)CC1 [Example H-244, (3R)-N-[1-(2-Amino-pyrimidin-4-yl)-piperidin-4-yl]-3-[(2-chloro-benzoyl)amino]-N-methyl-2,3-dihydro-1H-indene-5-carboxylic acid amide]	–	–	100%	–
